In data set [1] the test system is 3T3-L1 cells. Nature of the data set: MTT cell viability / proliferation assay. It is filed as cell-based, Mouse. The protocol: The cell viability was evaluated using the MTT assay. 3T3-L1 cells were seeded at a density of 1×10^3 in 96-well plates and incubated for 24h. Compounds 1 and 2 were added in the wells at various concentrations and then incubated at 37 °C. Cells were treated with compound 1 at concentrations of 62.5, 46.875, 31.25, 15.625, 7.81 and 3.9 µM. Cells were treated with compound 2 at concentrations of 62.5, 25.0, 12.5, 6.25 and 3.125 µM. After 24, 48, and 72 h of treatment, MTT solution was added in the wells at a final concentration of 0.5 mg/mL and incubated for 4 h. Cell culture media with MTT was removed and the formazan crystals were dissolved in 100 µl/well isopropanol/HCl (0.4%) and the absorbance was measured at 600 nm using the Infinite® 200 PRO microplate plate reader (Tecan, Zurich, Switzerland).

Data set [2] relates to cytochrome P450 genes (Cyp1a1, Cyp2b10, Cyp3a11, Cyp3a25). Nature of the data set: Quantitative PCR of cytochrome P450 genes in liver RNA extracts. The format is in vivo, C57BL/6 adult male mice. Conditions: 0.25 mg/mouse i.p. every 48 h for 35 days; vs high-fat diet mice. As for the experimental part:
(§1) Adipocytes and preadipocytes were harvested using the TRI Reagent®. RNA isolation was carried out according to the manufacturer's instructions. The purified RNA was quantified using the Nanodrop micro-volume spectrophotometer and 500 ng of each sample were used as a template for reverse transcription. cDNA synthesis was performed using the PrimeScriptTM RT reagent Kit (TaKaRa, RR037A) according to manufacturer's instructions. The cDNA produced by the above described procedure was diluted and used as a template for two-step quantitative PCR in a StepOnePlus™ Real-Time PCR System (Applied Biosystems™, 4376600) for a maximum of 40 cycles, as follows: start step 95 °C for 3 min, repeat steps: 95 °C for 15 s and 60 °C for 30 s. Amplification was performed using KAPA SYBR® FAST Universal qPCR kit (Kapa Biosystems, KK4618) according to manufacturer's instructions. Relative quantitative analysis was accomplished calculating fold-changes of gene expression as 2-(ΔΔCt), where ΔCt is (Ct (gene of interest) - Ct (housekeeping gene)). Ppib was used as internal control gene in 3T3L1 cells and in the fat fraction of mice abdominal fat, Rps9 was used as internal control gene in the stromal vascular fraction of mice abdominal fat and Actb was used as internal control gene in liver samples. Table 1. List of primers used for quantitative real-time PCR analysis.
(§2) All procedures were conducted in compliance with protocols approved by the Animal Care Committee of the University of Crete, School of Medicine (Facility number EL91-BIOexp-06), in conjunction with the Veterinary Department of the Region of Crete, Heraklion, Crete, Greece. C57BL/6 adult male mice were maintained in a 12 h day/night cycle and 21-23 °C conditions. Mice were provided with water and either normal fat diet, or high fat diet (60% energy from fat) ad libitum. All mice were weighed every 48 h.
(§3) Neorogioldiol was first dissolved in 90% carbowaxTM 400, 10% (v/v) absolute ethanol solution and then diluted 1:10 in water for injection. A dose of 0.25 mg neorogioldiol in a total volume of 200 µl was administered intraperitoneally every 48 h in mice in high fat + neorogioldiol group starting from day 1. 4-5 mice were used per group and each experiment was performed twice.

The test system of data set [3] is abdominal fat. The experiment in a line: Quantitative PCR in fat fraction and stromal vascular fraction of abdominal fat. It is filed as in vivo, C57BL/6 adult male mice. As for the experimental part: as §1, §2, §3
Abdominal fat lobes were weighed, washed in PBS, minced and dissolved with collagenase. They were incubated in 1.5mg/ml collagenase in 1% PBS-BSA, for 30 min at 37 °C. Next, homogenate was centrifuged at 800 rpm for 5 min at room temperature. The upper fatty phase, which contains the adipocytes, was collected and resuspended in TRI Reagent® and RNA isolation was carried out according to the manufacturer's instructions. The cell pellet, which is the stromal vascular fraction, was washed once with PBS and resuspended in TRI Reagent® for RNA isolation.

The subject of data set [4] is 3T3-L1 cells. The experiment in a line: Quantitative PCR of relative mRNA expression in cell culture samples. It is filed as cell-based, Mouse. Conditions: mature adipocytes: differentiated 15 days, then 62.5 µM for 8 more days.
The mark [5] stands for this setting: high fat diet + neorogioldiol vs high fat diet mice.
The mark [6] stands for this setting: high fat diet + neorogioldiol vs untreated obese mice.

For neorogioldiol, the “concentrations that did not exhibit cytotoxicity” value in data set [1] (concentration chosen for further analyses) is reported as 62.5 µM. Further, in data set [1] (three-day incubation (24, 48, 72 h), compound 1: after the first 24 h of treatment), the “concentration with cytostatic effects” value is 62.5 µM. Further, in data set [2], the “Cyp1a1 expression in liver RNA extracts” value is reported as “no difference”, the “Cyp2b10 expression in liver RNA extracts” value is “no difference”, the “Cyp3a11 expression in liver RNA extracts” value was “no difference” and the “Cyp3a25 expression in liver RNA extracts” value is “no difference”. Further, in data set [3] (setting [5]), the “Arg1 expression in the stromal vascular fraction” value is on record as “downregulated” and the “Il10 expression in the stromal vascular fraction” value was “downregulated”. In data set [3] (setting [6]), the “Adipoq expression in the fat fraction of abdominal fat” value is “lower levels” and the “Lep expression in the fat fraction of abdominal fat” value is listed as “lower levels”. In data set [4], the Dlkl expression result is reported as “did not affect the expression”, the Lep expression entry was “decreased the expression” and the Slc2a4 expression result is recorded as “decreased the expression”.

Values taken from EP4556003A1, “ANTI-OBESITY AND ANTI-DIABETIC ACTIVITY OF BROMINATED DITERPENES FROM RED ALGAE OF THE GENUS LAURENCIA AND APPLICATIONS THEREOF” (priority 2023, dated 2025).
